Measured values from ChEMBL document CHEMBL1123294, “Dog coronary artery adenosine receptor: structure of the N6-aryl subregion” (J Med Chem, 1986).

Assays:
[1] = molecular target: T1, Adenosine A2 receptor (UniProt P29275+P29274); experiment: Maximum increase in coronary flow, percent of control, and nucleoside concentration in coronary plasma at 28 uM; assay type: functional; conditions: Canis lupus familiaris
[2] = molecular target: T1, Adenosine A2 receptor; experiment: Acidic dissociation constant(pKa) against A2 adenosine receptor of coronary artery; assay type: protein assay; conditions: Canis lupus familiaris
[3] = Index of hydrophobicity (k'); assay type: ADME
[4] = molecular target: T1, Adenosine A2 receptor; conditions: Canis lupus familiaris
Description: Molar potency ratio (MPR) against adenosine A2 receptor of canine coronary artery

[5] = molecular target: T1, Adenosine A2 receptor; experiment: Association constant against A2 adenosine receptor; assay type: protein assay; conditions: Canis lupus familiaris
[6] = molecular target: T1, Adenosine A2 receptor; experiment: Maximum increase in coronary flow, percent of control, and nucleoside concentration in coronary plasma at 17 uM; assay type: functional; conditions: Canis lupus familiaris
[7] = molecular target: T1, Adenosine A2 receptor; experiment: Molar potency ratio (MPR) against A2 adenosine receptor of coronary artery; assay type: functional; conditions: Canis lupus familiaris
[8] = molecular target: T1, Adenosine A2 receptor; conditions: Canis lupus familiaris; remark: listed apart in the source
[9] = Estimated ionization constant(pKa); assay type: physicochemical
[10] = molecular target: T1, Adenosine A2 receptor; experiment: Maximum increase in coronary flow, percent of control, and nucleoside concentration in coronary plasma at 12 uM; assay type: functional; conditions: Canis lupus familiaris

T1 sequence (P29274 whole entry, looked up): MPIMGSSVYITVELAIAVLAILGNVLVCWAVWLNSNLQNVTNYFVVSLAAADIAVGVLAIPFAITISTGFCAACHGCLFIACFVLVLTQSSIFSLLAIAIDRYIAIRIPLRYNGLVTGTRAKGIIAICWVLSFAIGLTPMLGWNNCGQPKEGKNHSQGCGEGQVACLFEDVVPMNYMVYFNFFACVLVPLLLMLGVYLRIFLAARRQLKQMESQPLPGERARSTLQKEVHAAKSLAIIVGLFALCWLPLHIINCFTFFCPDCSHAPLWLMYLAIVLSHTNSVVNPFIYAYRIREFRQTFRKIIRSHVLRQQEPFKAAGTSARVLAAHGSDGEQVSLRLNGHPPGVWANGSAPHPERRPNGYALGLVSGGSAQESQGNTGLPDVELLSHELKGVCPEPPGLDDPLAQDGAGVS
T1 sequence (P29275 whole entry, looked up): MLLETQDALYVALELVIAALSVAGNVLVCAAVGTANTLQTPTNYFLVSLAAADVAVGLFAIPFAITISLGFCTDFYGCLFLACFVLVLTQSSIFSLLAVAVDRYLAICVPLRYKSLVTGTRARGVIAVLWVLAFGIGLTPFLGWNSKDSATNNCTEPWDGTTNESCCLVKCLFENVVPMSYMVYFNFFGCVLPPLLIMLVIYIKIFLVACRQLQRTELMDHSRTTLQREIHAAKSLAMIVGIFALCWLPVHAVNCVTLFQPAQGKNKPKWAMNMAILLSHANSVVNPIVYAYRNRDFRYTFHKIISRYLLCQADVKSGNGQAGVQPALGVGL

| pka [2] | k' [3] | MPR [4] | SMILES | further results |
| --- | --- | --- | --- | --- |
| 2.73 | 1.29 | 1.4 | OC[C@H]1O[C@@H](n2cnc3c(Nc4ccccc4)ncnc32)[C@H](O)[C@@H]1O [N6-PHENYLADENOSINE] | K [5]: 3160 M⁻¹ |
| 3.3 | 2.31 |  | COc1ccccc1CNc1ncnc2c1ncn2[C@@H]1O[C@H](CO)[C@@H](O)[C@H]1O | MPR [7]: 0.7 |
| 3.06 | 3.12 | 1.2 | OC[C@H]1O[C@@H](n2cnc3c(NCc4ccccc4Cl)ncnc32)[C@H](O)[C@@H]1O |  |
|  | 2.57 | 1.2 | COc1ccccc1CCNc1ncnc2c1ncn2C1O[C@H](CO)[C@@H](O)[C@H]1O (some centres undefined) | pKa [9]: 3.56 |
| 3.32 | 4.52 | 0.67 | Cc1ccccc1CCNc1ncnc2c1ncn2C1O[C@H](CO)[C@@H](O)[C@H]1O (some centres undefined) |  |
| 3.22 | 2.76 | 1.8 | Cc1ccccc1CNc1ncnc2c1ncn2[C@@H]1O[C@H](CO)[C@@H](O)[C@H]1O |  |
| 3.27 | 3.64 | 0.67 | OC[C@H]1OC(n2cnc3c(NCCc4ccccc4Cl)ncnc32)[C@H](O)[C@@H]1O (some centres undefined) | K [5]: 32400 M⁻¹ |
| 2.76 | 2.36 | 0.42 | OC[C@H]1OC(n2cnc3c(Nc4ccccc4Cl)ncnc32)[C@H](O)[C@@H]1O (some centres undefined) |  |
| 3.57 | 1.77 | 2 | OC[C@H]1O[C@@H](n2cnc3c(NCCc4ccccc4)ncnc32)[C@H](O)[C@@H]1O |  |
| 3.07 | 1.21 | 0.52 | OC[C@H]1O[C@@H](n2cnc3c(NCc4ccccc4)ncnc32)[C@H](O)[C@@H]1O [N6-BENZYLADENOSINE] |  |
| 2.98 | 1.4 | 0.65 | Cc1ccccc1Nc1ncnc2c1ncn2C1O[C@H](CO)[C@@H](O)[C@H]1O (some centres undefined) |  |
| 3.32 | 1.57 | 0.36 | OC[C@H]1O[C@@H](n2cnc3c(NCc4ccc(F)cc4)ncnc32)[C@H](O)[C@@H]1O |  |

More lines, now with the values behind:

| SMILES | pka [2] | k' [3] | MPR [4] | further results |
| --- | --- | --- | --- | --- |
| COc1cc(Nc2ncnc3c2ncn3C2O[C@H](CO)[C@@H](O)[C@H]2O)cc(OC)c1OC (some centres undefined) | 2.8 | 1.54 |  | Activity [1]: 28% |
| OC[C@H]1OC(n2cnc3c(Nc4cccc(F)c4)ncnc32)[C@H](O)[C@@H]1O (some centres undefined) | 2.66 | 2.36 | 0.43 | K [5]: 6360 M⁻¹ |
| Cc1cccc(C)c1Nc1ncnc2c1ncn2C1O[C@H](CO)[C@@H](O)[C@H]1O (some centres undefined) |  | 1.52 |  | Activity [6]: 22% |
| OC[C@H]1OC(n2cnc3c(NC4CCc5ccccc5C4)ncnc32)[C@H](O)[C@@H]1O (some centres undefined) |  | 4.89 |  | MPR [8]: 0.14 |
| OC[C@H]1OC(n2cnc3c(Nc4ccc(F)cc4)ncnc32)[C@H](O)[C@@H]1O (some centres undefined) | 2.65 | 1.68 | 1.5 | K [5]: 3560 M⁻¹ |
| OC[C@H]1OC(n2cnc3c(NCCc4ccc(F)cc4)ncnc32)[C@H](O)[C@@H]1O (some centres undefined) | 3.32 | 2.39 | 2.1 | K [5]: 10300 M⁻¹ |
| OC[C@H]1OC(n2cnc3c(NCCc4ccccn4)ncnc32)[C@H](O)[C@@H]1O (some centres undefined) | < 1 | 0.39 | 1 |  |
| C[C@H](Cc1ccccc1)Nc1ncnc2c1ncn2[C@@H]1O[C@H](CO)[C@@H](O)[C@H]1O (stereo in doubt; 1) |  |  |  | MPR [8]: 4.3 |
| OC[C@H]1OC(n2cnc3c(NCCc4cccnc4)ncnc32)[C@H](O)[C@@H]1O (some centres undefined) | < 1 | 0.38 | 3 |  |
| OC[C@H]1OC(n2cnc3c(Nc4ccc(Cl)cc4)ncnc32)[C@H](O)[C@@H]1O (some centres undefined) | 2.46 | 4.96 | 0.94 |  |
| Cc1ccc(CCNc2ncnc3c2ncn3C2O[C@H](CO)[C@@H](O)[C@H]2O)cc1 (some centres undefined) | 3.4 | 4.76 | 0.46 |  |
| COc1ccc(CNc2ncnc3c2ncn3[C@@H]2O[C@H](CO)[C@@H](O)[C@H]2O)cc1 | 3.06 | 1.66 |  | MPR [8]: 0.04 |
| Cc1ccc(Nc2ncnc3c2ncn3C2O[C@H](CO)[C@@H](O)[C@H]2O)cc1 (some centres undefined) | 2.79 | 3.28 | 1.3 |  |
| Cc1cc(C)cc(Nc2ncnc3c2ncn3C2O[C@H](CO)[C@@H](O)[C@H]2O)c1 (some centres undefined) |  | 6.43 |  | Activity [10]: 4% |
| Cc1cccc(Nc2ncnc3c2ncn3C2O[C@H](CO)[C@@H](O)[C@H]2O)c1 (some centres undefined) | 2.79 | 3.28 | 0.023 |  |
| OC[C@H]1OC(n2cnc3c(Nc4cccc(Cl)c4)ncnc32)[C@H](O)[C@@H]1O (some centres undefined) | 2.61 | 5.05 | 0.2 |  |
